From PubChem BioAssay (NCI)
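These data come from cells grown in 96-well plates and exposed to compound for 48 hours at five concentrations. The concentration for full growth arrest is given as TGI.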

Tests used:
Assay in all cases: NCI-60 cell line screen, 48 h
786-0 renal = system: 786-0 renal
A498 renal = system: A498 renal
A549 NSCLC = system: A549 NSCLC
ACHN renal = system: ACHN renal
BT-549 breast = system: BT-549 breast
CAKI-1 renal = system: CAKI-1 renal
CCRF-CEM leukemia = system: CCRF-CEM leukemia
COLO 205 colon = system: COLO 205 colon
DU-145 prostate = system: DU-145 prostate
EKVX NSCLC = system: EKVX NSCLC
HCC-2998 colon = system: HCC-2998 colon
HCT-116 colon = system: HCT-116 colon
HCT-15 colon = system: HCT-15 colon
HL-60(TB) leukemia = system: HL-60(TB) leukemia
HOP-62 NSCLC = system: HOP-62 NSCLC
HOP-92 NSCLC = system: HOP-92 NSCLC
HS 578T breast = system: HS 578T breast
HT29 colon = system: HT29 colon
IGROV1 ovarian = system: IGROV1 ovarian
K-562 leukemia = system: K-562 leukemia
KM12 colon = system: KM12 colon
LOX IMVI melanoma = system: LOX IMVI melanoma
M14 melanoma = system: M14 melanoma
MCF7 breast = system: MCF7 breast
MDA-MB-231 breast = system: MDA-MB-231 breast
MDA-MB-435 = system: MDA-MB-435
MDA-N = system: MDA-N
MOLT-4 leukemia = system: MOLT-4 leukemia
NCI-H226 lung = system: NCI-H226 lung
NCI-H23 lung = system: NCI-H23 lung
NCI-H460 lung = system: NCI-H460 lung
NCI-H522 lung = system: NCI-H522 lung
NCI/ADR-RES ovarian = system: NCI/ADR-RES ovarian
OVCAR-3 ovarian = system: OVCAR-3 ovarian
OVCAR-4 ovarian = system: OVCAR-4 ovarian
OVCAR-5 ovarian = system: OVCAR-5 ovarian
OVCAR-8 ovarian = system: OVCAR-8 ovarian
PC-3 prostate = system: PC-3 prostate
RPMI-8226 leukemia = system: RPMI-8226 leukemia
RXF 393 renal = system: RXF 393 renal
SF-268 CNS = system: SF-268 CNS
SF-295 CNS = system: SF-295 CNS
SF-539 CNS = system: SF-539 CNS
SK-MEL-2 melanoma = system: SK-MEL-2 melanoma
SK-MEL-5 melanoma = system: SK-MEL-5 melanoma
SK-OV-3 ovarian = system: SK-OV-3 ovarian
SN12C renal = system: SN12C renal
SNB-19 CNS = system: SNB-19 CNS
SNB-75 CNS = system: SNB-75 CNS
SW-620 colon = system: SW-620 colon
T-47D breast = system: T-47D breast
TK-10 renal = system: TK-10 renal
U251 CNS = system: U251 CNS
UACC-257 melanoma = system: UACC-257 melanoma
UACC-62 melanoma = system: UACC-62 melanoma
UO-31 renal = system: UO-31 renal
MALME-3M melanoma = system: MALME-3M melanoma
SK-MEL-28 melanoma = system: SK-MEL-28 melanoma
SR leukemia = system: SR leukemia

O=c1[nH]c2ccccc2c(O)c1/C=N/C(=S)NC1CCCCC1
TGI (786-0 renal): > 100 µM
TGI (A498 renal): > 100 µM
TGI (A549 NSCLC): > 100 µM
TGI (ACHN renal): > 100 µM
TGI (BT-549 breast): > 100 µM
TGI (CAKI-1 renal): > 100 µM
TGI (CCRF-CEM leukemia): > 100 µM
TGI (COLO 205 colon): > 100 µM
TGI (DU-145 prostate): > 100 µM
TGI (EKVX NSCLC): > 100 µM
TGI (HCC-2998 colon): > 100 µM
TGI (HCT-116 colon): > 100 µM
TGI (HCT-15 colon): > 100 µM
TGI (HL-60(TB) leukemia): > 100 µM
TGI (HOP-62 NSCLC): > 100 µM
TGI (HOP-92 NSCLC): > 100 µM
TGI (HS 578T breast): > 100 µM
TGI (HT29 colon): > 100 µM
TGI (IGROV1 ovarian): > 100 µM
TGI (K-562 leukemia): > 100 µM
TGI (KM12 colon): > 100 µM
TGI (LOX IMVI melanoma): > 100 µM
TGI (M14 melanoma): > 100 µM
TGI (MCF7 breast): > 100 µM
TGI (MDA-MB-231 breast): > 100 µM
TGI (MDA-MB-435): > 100 µM
TGI (MDA-N): > 100 µM
TGI (MOLT-4 leukemia): > 100 µM
TGI (NCI-H226 lung): > 100 µM
TGI (NCI-H23 lung): > 100 µM
TGI (NCI-H460 lung): > 100 µM
TGI (NCI-H522 lung): > 100 µM
TGI (NCI/ADR-RES ovarian): > 100 µM
TGI (OVCAR-3 ovarian): > 100 µM
TGI (OVCAR-4 ovarian): > 100 µM
TGI (OVCAR-5 ovarian): > 100 µM
TGI (OVCAR-8 ovarian): > 100 µM
TGI (PC-3 prostate): > 100 µM
TGI (RPMI-8226 leukemia): > 100 µM
TGI (RXF 393 renal): > 100 µM
TGI (SF-268 CNS): > 100 µM
TGI (SF-295 CNS): > 100 µM
TGI (SF-539 CNS): > 100 µM
TGI (SK-MEL-2 melanoma): > 100 µM
TGI (SK-MEL-5 melanoma): > 100 µM
TGI (SK-OV-3 ovarian): > 100 µM
TGI (SN12C renal): > 100 µM
TGI (SNB-19 CNS): > 100 µM
TGI (SNB-75 CNS): > 100 µM
TGI (SW-620 colon): > 100 µM
TGI (T-47D breast): > 100 µM
TGI (TK-10 renal): > 100 µM
TGI (U251 CNS): > 100 µM
TGI (UACC-257 melanoma): > 100 µM
TGI (UACC-62 melanoma): > 100 µM
TGI (UO-31 renal): > 100 µM

CC(=O)/C=C/c1ccccc1
TGI (786-0 renal): 49.1 µM
TGI (A498 renal): 76.3 µM
TGI (A549 NSCLC): > 100 µM
TGI (ACHN renal): > 100 µM
TGI (CAKI-1 renal): > 100 µM
TGI (CCRF-CEM leukemia): > 100 µM
TGI (COLO 205 colon): > 100 µM
TGI (DU-145 prostate): > 100 µM
TGI (EKVX NSCLC): > 100 µM
TGI (HCC-2998 colon): > 100 µM
TGI (HCT-116 colon): > 100 µM
TGI (HCT-15 colon): > 100 µM
TGI (HL-60(TB) leukemia): > 100 µM
TGI (HOP-62 NSCLC): 93.9 µM
TGI (HS 578T breast): > 100 µM
TGI (HT29 colon): > 100 µM
TGI (IGROV1 ovarian): 64.9 µM
TGI (K-562 leukemia): > 100 µM
TGI (KM12 colon): 97.9 µM
TGI (M14 melanoma): 85 µM
TGI (MALME-3M melanoma): > 100 µM
TGI (MCF7 breast): > 100 µM
TGI (MDA-MB-231 breast): > 100 µM
TGI (MDA-MB-435): 68.3 µM
TGI (MDA-N): 91.9 µM
TGI (MOLT-4 leukemia): > 100 µM
TGI (NCI-H226 lung): 91.2 µM
TGI (NCI-H23 lung): 85.5 µM
TGI (NCI-H460 lung): > 100 µM
TGI (NCI-H522 lung): 32.6 µM
TGI (NCI/ADR-RES ovarian): > 100 µM
TGI (OVCAR-4 ovarian): > 100 µM
TGI (OVCAR-5 ovarian): > 100 µM
TGI (OVCAR-8 ovarian): 72.9 µM
TGI (PC-3 prostate): > 100 µM
TGI (RPMI-8226 leukemia): > 100 µM
TGI (RXF 393 renal): > 100 µM
TGI (SF-268 CNS): > 100 µM
TGI (SF-295 CNS): > 100 µM
TGI (SF-539 CNS): 64.6 µM
TGI (SK-MEL-2 melanoma): > 100 µM
TGI (SK-MEL-28 melanoma): > 100 µM
TGI (SK-MEL-5 melanoma): 61.2 µM
TGI (SK-OV-3 ovarian): > 100 µM
TGI (SN12C renal): > 100 µM
TGI (SNB-19 CNS): > 100 µM
TGI (SNB-75 CNS): > 100 µM
TGI (SR leukemia): 53 µM
TGI (SW-620 colon): > 100 µM
TGI (T-47D breast): > 100 µM
TGI (TK-10 renal): > 100 µM
TGI (U251 CNS): > 100 µM
TGI (UACC-257 melanoma): > 100 µM
TGI (UACC-62 melanoma): > 100 µM
TGI (UO-31 renal): > 100 µM
